According to patent US11395867B2, “Degradable removable implant for the sustained release of an active compound” (Janssen Sciences Ireland Unlimited Company, priority 2009, dated 2022):
Where “and” joins values, the source holds several entries; their conditions need not be identical. Equal entries are not always repeated.

Assays:
[1] = In vivo testing of electrostatically spun tube containing two sets of microparticles, plasma concentrations; design: species or system Sprague-Dawley rats; conditions: rat, subcutaneous electrospun tube implant, TMC278 139 mg/kg, compound 1 64 mg/kg, individual animals 1-4
Procedure: Tubes were electrostatically spun from a 100 mg/ml polydioxanone (IVHFIP=1.99 dl/g) hexafluoroisopropanol solution. A 4 mm mandrel was used to provide a consistent inner diameter of 4 mm. The rotational speed of the mandrel was 400 rpm, the charging voltage range was 20/−10 kV, and the pump flow rate was 10 ml/hour. The resulting wall thickness was 500 microns. Fiber diameters were 1-2 microns and the average pore size formed from the network of fibers was 20 microns as determined by Scanning Electron Microscopy.
The microparticles were prepared by the spinning disc method using a polymer/acetone solution with a concentration ranging from 3-4% (w/w). Two sets of microparticles were prepared. The target composition of one set was 70% (w/w) TMC278 and 30% (w/w) PLGA 50/50 (Lakeshore Biomaterials IVHFIP=0.79 dl/g). The target composition of the other set of microparticles was 70% (w/w) of compound 1 (=compound 14 of WO01/25240) and 30% (w/w) PLGA 50/50 (Lakeshore Biomaterials IVHFIP=0.18 dl/g). This compound 1 has the following structure and will be referred to hereinafter as compound 1:
Approximately 133 mg of the microparticle mixture was introduced into the electrostatically prepared tubes using a spatula.
(§1) The prepared tubes were implanted into the subcutaneous space on the back of four male Sprague-Dawley rats weighing between 250-350 grams. The dose of TMC278 was 139 mg/kg and the dose of compound 1 was 64 mg/kg. The tail vein was sampled at pre-determined time points. Blood samples were immediately centrifuged to extract the plasma, plasma was analyzed for compound 1 and TMC278 by LC/MS/MS. The lower limit of quantitation was 0.4 ng/ml and 2 ng/ml for TMC278 and compound 1, respectively.

[2] = In vivo testing of laser drilled melt extruded tube containing two sets of microparticles, plasma concentrations; conditions: rat, subcutaneous laser drilled extruded tube implant, TMC278 139 mg/kg, compound 1 64 mg/kg, individual animals 1-4
Procedure: Tubes with inner diameter of 4.5 mm were extruded from polydioxanone (IVHFIP=1.99 dl/g) using a ¾ inch single screw extruder fitted with a tube die. The dimensions of the tube were monitored using an in-line laser diameter measuring system and maintained using a puller. Following the extrusion the tubes were laser drilled. In preparation for the laser drilling a mask design was prepared that located the holes 260 microns apart from one another. Scanning electron microscopy was used to size the inner and outer diameter of the holes. […] The microparticles were prepared as described in Example 9. Approximately 133 mg of the microparticle mixture was introduced into the tubes.
as §1, with “plasma, and” for “plasma,”, “quantitation for TMC278 and compound 1” for “quantitation”, “2.0 ng/ml,” for “2 ng/ml for TMC278 and compound 1,”

[3] = In vivo testing of laser drilled melt extruded tube containing two sets of microparticles formulated with F108, plasma concentrations; design: species or system Sprague-Dawley rats; conditions: rat, subcutaneous laser drilled extruded tube implant, TMC278 109 mg/kg, compound 1 78 mg/kg, individual animals 1-4
Procedure: The laser drilled melt extruded tube was prepared as described above in example 10. The microparticles were prepared by the spinning disc method using a 3% (w/w) polymer/acetone solution. Two sets of microparticles were prepared. The target composition of one set was 70% (w/w) TMC278, 20% (w/w) PLGA 50/50 (Lakeshore Biomaterials IVHFIP=0.79 dl/g), and 10% (w/w) F108 (BASF). The target composition of the other set of microparticles was 70% (w/w) compound 1, 20% (w/w) PLGA 50/50 (Lakeshore Biomaterials IVHFIP=0.18 dl/g), and 10% (w/w) F108. The F108 was added to the polymer solution.
The size range of the microparticles was determined by randomly selecting a sample of microparticles and placing them on the stage of an optical microscope and using a ruler to measure the various sizes of the microparticles in the randomly selected sample. The size range of the TMC278 and compound 1 microparticles was 10-100 microns and 20-100 microns, respectively. Microparticles were mixed as described in example 9. Approximately 133 mg of the microparticle mixture was introduced into tubes using a spatula to transfer the contents.
as §1, with “TMC278” for “TMC278 was 139 mg/kg”, “and” for “and the dose of”, “109 mg/kg and 78 mg/kg, respectively.” for “64 mg/kg.”, “quantitation for TMC278 and compound 1” for “quantitation”, “ng/ml,” for “ng/ml for TMC278 and compound 1,”

In the case of `CC(C)CN(C[C@@H](O)[C@H](Cc1ccccc1)NC(=O)O[C@H]1CO[C@H]2OCC[C@H]21)S(=O)(=O)c1ccc2c(c1)OCO2` [compound 1], the plasma concentration ([1]; 3 hour) is reported as 2.37 ng/mL and 4.08 ng/mL and 4.46 ng/mL, the plasma concentration ([1]; 1 day) is reported as 12.6 ng/mL and 9.95 ng/mL and 10.5 ng/mL and the plasma concentration ([1]; 3 day) is reported as 15.1 ng/mL and 14.2 ng/mL and 15.9 ng/mL. The plasma concentration ([1]; 7 day) was 13.6 ng/mL and 13.2 ng/mL and 13.0 ng/mL, the plasma concentration ([1]; 14 day) was 7.17 ng/mL and 12.7 ng/mL and 16.6 ng/mL and 9.89 ng/mL and the plasma concentration ([1]; 28 day) was 6.07 ng/mL and 8.86 ng/mL and 12.4 ng/mL and 10.5 ng/mL. For the same compound, the plasma concentration ([1]; 35 day) was 5.75 ng/mL and 12.0 ng/mL and 20.0 ng/mL and 11.6 ng/mL, the concentration at 3 h ([1]; male, Sprague-Dawley, plasma, subcutaneous, 3 hour) was 3.93 ng/mL and the concentration at 1 day ([1]; male, Sprague-Dawley, plasma, subcutaneous, 1 day) was 6.39 ng/mL. The concentration at 3 day ([1]; male, Sprague-Dawley, plasma, subcutaneous, 3 day) was 10 ng/mL, the concentration at 7 day ([1]; male, Sprague-Dawley, plasma, subcutaneous, 7 day) was 9.95 ng/mL and the plasma concentration ([2]; 3 hour) was 2.88 ng/mL and 16.4 ng/mL and 27.0 ng/mL and 16.5 ng/mL. For the same compound, the plasma concentration ([2]; 1 day) was <2 ng/mL and 4.20 ng/mL and 9.25 ng/mL and 3.71 ng/mL, the plasma concentration ([2]; 3 day) was <2 ng/ml (2×) and 3.35 ng/ml and 6.06 ng/ml and the plasma concentration ([2]; 7 day) was 3.44 ng/mL and 3.13 ng/mL and <2 ng/mL. The plasma concentration ([2]; 14 day) was 2.70 ng/mL and 2.26 ng/mL and 3.66 ng/mL, the plasma concentration ([2]; 28 day) was <2 ng/mL and 4.32 ng/mL and 13.0 ng/mL and 4.30 ng/mL and the plasma concentration ([2]; 35 day) was <2 ng/mL and 3.56 ng/mL and 13.0 ng/mL and 2.57 ng/mL. For the same compound, the concentration at 7 day ([2]; male, in vivo, 7 day) was < 2 ng/mL, the concentration at 14 day ([2]; male, in vivo, 14 day) was < 2 ng/mL and the plasma concentration ([3]; 3 hour) was 59.1 ng/mL and 26.9 ng/mL and 39.2 ng/mL and 17.3 ng/mL. The plasma concentration ([3]; 1 day) was 6.13 ng/mL and 2.54 ng/mL and 4.36 ng/mL and 2.98 ng/mL, the plasma concentration ([3]; 3 day) was <2 ng/mL and the plasma concentration ([3]; 7 day) was 2.89 ng/ml and <2 ng/ml (2×). The plasma concentration ([3]; 14 day) was 8.25 ng/ml and <2 ng/ml (2×) and 6.27 ng/ml, the plasma concentration ([3]; 28 day) was 22.1 ng/mL and 6.03 ng/mL and 12.3 ng/mL and 16.3 ng/mL and the plasma concentration ([3]; 35 day) was 13.1 ng/mL and 7.25 ng/mL and 10.7 ng/mL and 15.4 ng/mL. The concentration at 3 day ([3]; male, Sprague-Dawley, plasma, 3 day) was 3.36 ng/mL and the concentration at 7 day ([3]; male, Sprague-Dawley, plasma, 7 day) was < 2 ng/mL.
